According to patent US20190358247A1 (The Medical College of Wisconsin, Inc., priority 2016, published 2019):

How the values were obtained:
[1] = tested on: MiaPaCa-2 cells; assay: Sytox Green cytotoxicity assay; type: cell-based; conditions: 100 μM, 24 h
Description: Cytotoxicity assay. To determine the cytotoxicity of Mito-Met analogs and other TPP^+-conjugated to a long chain aliphatic hydrocarbon, we used the Sytox assay as described previously. MiaPaCa-2 cells were treated for 24 h, and dead cells were monitored in the presence of 200 nM Sytox Green (Invitrogen). The Sytox method labels the nuclei of dead cells yielding green fluorescence. Fluorescence intensities from the dead cells in 96-well plate were acquired in real time every 15 min after 4 h using a plate reader (BMG Labtech, Inc.) equipped with an atmosphere controller set at 37° C. and 5% CO2:95% air, using a fluorescence detection with 485 nm (excitation) and 535 nm (emission). To measure the total cell number, all of the samples in each treatment group were permeabilized by adding Triton X 100 (0.065%) in the presence of Sytox Green for 3 h, and maximal fluorescence intensities were taken as 100%. Data are represented as a percentage of dead cells after normalization to total cell number for each group.
Induction of cell death was monitored by Sytox Green staining, as shown previously. MiaPaCa-2 cells were treated with Mito-Met10 (100 μM), Mito-CP (100 μM), or Met (30 mM) and other controls for 24 h and cell death was measured in real time.

[2] = tested on: MiaPaCa-2 cells; assay: Three-dimensional spheroid growth in Matrigel; type: cell-based, human
Description: Three-dimensional spheroid cell cultures of PDAC. MiaPaCa-2 cells (5,000) were seeded in 96-well plates containing Matrigel (Corning), used as scaffold. This typical 3D-cell culture system allows spheroids to form within the matrix. […] At days 3, 7, and 14 the wells were observed by bright-field microscopy and images acquired on a Nikon Eclipse Ti inverted microscope (Nikon instrument Inc., NY, USA). Spheroid-forming cells were counted using the Nikon NIS Elements imaging software (Nikon). Data are expressed as mean and SD of number of spheroids.
We tested the antiproliferative effects of Mito-Met and Met in the multicellular spheroid model (FIG. 11A). MiaPaCa-2 cells were cultured for 14 days in Matrigel and treated with Mito-Met10 and Met.

Br.N=C(N)NC(=N)NCCCCCCCCCC[P+](c1ccccc1)(c1ccccc1)c1ccccc1 [Mito-Met10]
cell death, Sytox Green staining [1]: no detectable cell death
fold more effective than Met in inhibiting PDAC proliferation, 2D and 3D cell growth assays [2]: 1,000- to 10,000 fold
PDAC spheroid growth ([2]; 0.5 μM, 14 days): potently inhibited PPAC spheroid growth
